Source: patent US10414811B2, “Protease-resistant lipidated GLP-1 analogs” (MEDIMMUNE LIMITED, priority 2015, dated 2019)
pEC50: −log10 of the molar value. Read-outs that look alike come from different tables or passages of the source. Numbered stars: 1 amine (or outer) side, 2 acyl side, 3 side chain; on linkers, the order of the positions; unused ones are H or OH. Square brackets hold non-standard residues; d marks the D form. Side chains are listed from the residue outwards. Peptide text beside a SMILES is read from it. * marks the point of attachment. C18 diacid = O=C(O)CCCCCCCCCCCCCCCCC(=O)*; γGlu = O=C(O)[C@H](CCC(=O)[*:2])N[*:1]; Palmitoyl = CCCCCCCCCCCCCCCC(=O)*; αMeF = C[C@](N)(Cc1ccccc1)C(=O)O; αMeK = C[C@](N)(CCCCN)C(=O)O; Lauroyl = CCCCCCCCCCCC(=O)*; αMeS = C[C@](N)(CO)C(=O)O; AEEA = NCCOCCOCC(=O)O; Aib = CC(C)(N)C(=O)O

How the values were obtained:
Format in all cases: cell-based
[1] = target: T1, human GLP-1 receptor (GLP-1R) (Homo sapiens, UniProt P43220); experiment: cAMP assay, human GLP-1R cells; conditions: for EC50: mean of n1 and n2, read-out: Mean pM GLP-1R
T1 construct: expressed in transfected cells
Procedure, shortened: (§1)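 Peptide-stimulated cAMP measured by two-step HTRF after a 30 min room-temperature incubation with receptor-expressing cells (hGLP-1R, hGIPR at 1×10^5 cells/ml; hGCGR at 2×10^5 cells/ml). Duplicate dilutions; EC50 from 4-parameter logistic fit of % Delta F.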

[2] = target: T2, human glucagon receptor (GCGR) (Homo sapiens, UniProt P47871); experiment: cAMP assay, human GCGR cells
T2 construct: expressed in transfected cells
Procedure, shortened: as §1

[3] = target: T3, human glucose-dependent insulinotropic peptide receptor (GIPR) (Homo sapiens, UniProt P48546); experiment: cAMP assay, human GIPR cells
T3 construct: expressed in transfected cells
T3 sequence (P48546 22-466): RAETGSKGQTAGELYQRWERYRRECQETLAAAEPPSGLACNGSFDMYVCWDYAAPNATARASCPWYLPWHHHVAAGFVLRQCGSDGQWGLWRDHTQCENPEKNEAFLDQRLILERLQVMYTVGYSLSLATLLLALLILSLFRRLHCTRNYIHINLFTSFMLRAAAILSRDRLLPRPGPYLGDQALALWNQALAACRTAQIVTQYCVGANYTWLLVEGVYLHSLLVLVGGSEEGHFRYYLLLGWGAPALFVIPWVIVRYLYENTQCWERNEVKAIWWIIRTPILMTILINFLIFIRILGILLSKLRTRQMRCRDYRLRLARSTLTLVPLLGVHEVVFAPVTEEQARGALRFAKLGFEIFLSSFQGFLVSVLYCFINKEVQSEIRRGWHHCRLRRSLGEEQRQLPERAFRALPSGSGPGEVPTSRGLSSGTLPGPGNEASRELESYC
Procedure, shortened: as §1

[4] = cAMP assay, first determination (n1), read-out: Primary assay EC50 GLP-1R n1
[5] = cAMP assay, second determination (n2), read-out: Primary assay EC50 GLP-1R n2
[6] = cAMP assay, first determination (n1), read-out: Primary assay EC50 Gluc-R (n1)
[7] = cAMP assay, second determination (n2), read-out: Primary assay EC50 Gluc-R (n2)
[8] = cAMP assay, first determination (n1), read-out: Primary assay EC50 GIP-R (n1)
[9] = cAMP assay, second determination (n2), read-out: Primary assay EC50 GIP-R (n2)

T2 sequence (P47871 26-477): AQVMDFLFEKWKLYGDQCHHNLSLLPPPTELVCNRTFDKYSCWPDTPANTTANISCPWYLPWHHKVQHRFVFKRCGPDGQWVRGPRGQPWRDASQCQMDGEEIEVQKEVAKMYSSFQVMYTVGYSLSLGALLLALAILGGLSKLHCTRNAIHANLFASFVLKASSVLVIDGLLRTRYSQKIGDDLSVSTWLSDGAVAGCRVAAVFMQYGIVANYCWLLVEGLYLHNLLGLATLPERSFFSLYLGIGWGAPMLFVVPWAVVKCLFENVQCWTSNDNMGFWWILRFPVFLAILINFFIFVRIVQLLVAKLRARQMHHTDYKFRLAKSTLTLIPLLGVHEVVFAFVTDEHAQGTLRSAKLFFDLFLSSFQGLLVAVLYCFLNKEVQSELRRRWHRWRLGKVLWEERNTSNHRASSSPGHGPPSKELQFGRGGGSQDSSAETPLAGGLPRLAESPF
T1 sequence (P43220 24-463): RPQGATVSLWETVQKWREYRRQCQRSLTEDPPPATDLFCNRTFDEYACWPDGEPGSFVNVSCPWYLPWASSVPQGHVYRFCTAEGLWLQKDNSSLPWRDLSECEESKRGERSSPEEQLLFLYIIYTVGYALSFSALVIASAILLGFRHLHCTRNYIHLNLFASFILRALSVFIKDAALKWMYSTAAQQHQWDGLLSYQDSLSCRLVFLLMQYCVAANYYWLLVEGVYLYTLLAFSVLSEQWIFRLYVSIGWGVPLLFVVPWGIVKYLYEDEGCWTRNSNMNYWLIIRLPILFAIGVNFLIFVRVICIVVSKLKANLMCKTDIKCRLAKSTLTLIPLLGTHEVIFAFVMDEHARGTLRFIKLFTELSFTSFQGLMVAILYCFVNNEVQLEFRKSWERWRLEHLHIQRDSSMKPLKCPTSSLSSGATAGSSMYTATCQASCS

CCCCCCCCCCCC(=O)N[C@@H](CCC(=O)NCCOCCOCC(=O)NCCOCCOCC(=O)NCCCC[C@H](NC(=O)CNC(=O)[C@H](CCC(=O)O)NC(=O)[C@H](CCCCNC(=O)COCCOCCNC(=O)COCCOCCNC(=O)CC[C@H](NC(=O)CCCCCCCCCCC)C(=O)O)NC(=O)[C@H](Cc1ccc(O)cc1)NC(=O)[C@H](CO)NC(=O)[C@](C)(CO)NC(=O)[C@@H](NC(=O)[C@H](CC(=O)O)NC(=O)[C@H](CO)NC(=O)[C@@H](NC(=O)[C@](C)(Cc1ccccc1)NC(=O)[C@H](CO)NC(=O)CNC(=O)[C@H](CCC(=O)O)NC(=O)C(C)(C)NC(=O)[C@@H](N)Cc1c[nH]cn1)[C@@H](C)O)C(C)C)C(=O)N[C@@H](C)C(=O)N[C@@H](C)C(=O)N[C@@](C)(CCCCN)C(=O)N[C@@H](CCC(=O)O)C(=O)N[C@@H](Cc1ccccc1)C(=O)N[C@H](C(=O)N[C@@H](C)C(=O)N[C@@H](Cc1ccccc1)C(=O)N[C@@H](CCCCNC(=O)COCCOCCNC(=O)COCCOCCNC(=O)CC[C@H](NC(=O)CCCCCCCCCCC)C(=O)O)C(=O)N[C@H](C(=O)N[C@@H](CCC(=O)O)C(=O)NCC(=O)NCC(N)=O)C(C)C)[C@@H](C)CC)C(=O)O [compound 484] (H-H[Aib]EGS[αMeF]TSDV[αMeS]SYK([AEEA-AEEA-γGlu-Lauroyl])EGK([AEEA-AEEA-γGlu-Lauroyl])AA[αMeK]EFIAFK([AEEA-AEEA-γGlu-Lauroyl])VEGG-NH2)
pEC50 ([1]; tris-lipidated peptides, replicate n1, read-out: Primary assay EC50 GLP-1R n1): 9.79 | pEC50 ([2]; tris-lipidated peptides, first replicate, read-out: Primary assay EC50 Gluc-R (n1)): ≤ 7.70 | pEC50 ([3]; tris-lipidated peptides, first replicate, read-out: Primary assay EC50 GIP-R (n1)): ≤ 7.70

CCCCCCCCCCCCCCCCCC(=O)NCCCCCC(=O)NCCCC[C@H](NC(=O)[C@@H](NC(=O)[C@@H](NC(=O)[C@](C)(Cc1ccccc1)NC(=O)[C@H](C)NC(=O)[C@@H](NC(=O)[C@](C)(Cc1ccccc1)NC(=O)[C@H](CCC(=O)O)NC(=O)[C@](C)(CCCCN)NC(=O)[C@H](C)NC(=O)[C@H](C)NC(=O)[C@H](CCC(=O)O)NC(=O)CNC(=O)[C@H](CCC(=O)O)NC(=O)[C@H](CC(C)C)NC(=O)[C@](C)(Cc1ccccc1)NC(=O)[C@H](CO)NC(=O)[C@](C)(CO)NC(=O)[C@@H](NC(=O)[C@H](CC(=O)O)NC(=O)[C@H](CO)NC(=O)[C@@H](NC(=O)[C@](C)(Cc1ccccc1)NC(=O)[C@H](CO)NC(=O)CNC(=O)[C@H](CCC(=O)O)NC(=O)C(C)(C)NC(=O)[C@@H](N)Cc1c[nH]cn1)[C@@H](C)O)C(C)C)[C@@H](C)CC)C(C)C)C(C)C)C(=O)NCC(=O)NCC(N)=O [compound 185]
pEC50 [1, 4]: 9.42 | pEC50 [1, 5]: 9.92 | EC50 [1]: 251 pM | pEC50 [2, 6]: ≤ 7.55 | pEC50 [2, 7]: ≤ 7.55 | pEC50 [3, 8]: ≤ 7.55 | pEC50 [3, 9]: ≤ 7.55

CC[C@H](C)[C@H](NC(=O)[C@](C)(Cc1ccccc1)NC(=O)[C@H](CCC(=O)O)NC(=O)[C@](C)(CCCCN)NC(=O)[C@H](C)NC(=O)[C@H](C)NC(=O)[C@H](CCC(=O)O)NC(=O)CNC(=O)[C@H](CCC(=O)O)NC(=O)[C@H](CC(C)C)NC(=O)[C@](C)(Cc1ccccc1)NC(=O)[C@H](CO)NC(=O)[C@](C)(CO)NC(=O)[C@@H](NC(=O)[C@H](CC(=O)O)NC(=O)[C@H](CO)NC(=O)[C@@H](NC(=O)[C@](C)(Cc1ccccc1)NC(=O)[C@H](CCCCNC(=O)COCCOCCNC(=O)COCCOCCNC(=O)CC[C@H](NC(=O)CCCCCCCCCCCCCCCCC(=O)O)C(=O)O)NC(=O)CNC(=O)[C@H](CCC(=O)O)NC(=O)C(C)(C)NC(=O)[C@@H](N)Cc1c[nH]cn1)[C@@H](C)O)C(C)C)C(=O)N[C@@H](C)C(=O)N[C@@](C)(Cc1ccccc1)C(=O)N[C@H](C(=O)N[C@H](C(=O)N[C@@](C)(CCCCN)C(=O)NCC(=O)NCC(N)=O)C(C)C)C(C)C [compound 124] (H-H[Aib]EGK([AEEA-AEEA-γGlu-C18 diacid])[αMeF]TSDV[αMeS]S[αMeF]LEGEAA[αMeK]E[αMeF]IA[αMeF]VV[αMeK]GG-NH2; N-terminus assumed)
pEC50 [1, 4]: ≤ 7.60 | pEC50 [1, 5]: ≤ 7.60 | EC50 [1]: ≥ 25100 pM | pEC50 [2, 6]: ≤ 7.60 | pEC50 [2, 7]: ≤ 7.60 | pEC50 [3, 8]: ≤ 7.60 | pEC50 [3, 9]: ≤ 7.60

CC[C@H](C)[C@H](NC(=O)[C@](C)(Cc1ccccc1)NC(=O)[C@H](CCC(=O)O)NC(=O)[C@](C)(CCCCN)NC(=O)[C@H](C)NC(=O)[C@H](C)NC(=O)[C@H](CCC(=O)O)NC(=O)CNC(=O)[C@H](CCC(=O)O)NC(=O)[C@H](CC(C)C)NC(=O)[C@](C)(Cc1ccccc1)NC(=O)[C@H](CO)NC(=O)[C@H](CO)NC(=O)[C@@H](NC(=O)[C@H](CC(=O)O)NC(=O)[C@H](CO)NC(=O)[C@H](CO)NC(=O)[C@](C)(Cc1ccccc1)NC(=O)[C@H](CO)NC(=O)CNC(=O)[C@H](CCC(=O)O)NC(=O)C(C)(C)NC(=O)[C@@H](N)Cc1c[nH]cn1)C(C)C)C(=O)N[C@@H](C)C(=O)N[C@@](C)(Cc1ccccc1)C(=O)N[C@H](C(=O)N[C@H](C(=O)N[C@@](C)(CCCCN)C(=O)NCC(=O)NCC(N)=O)C(C)C)C(C)C [compound 8] (H-H[Aib]EGS[αMeF]SSDVSS[αMeF]LEGEAA[αMeK]E[αMeF]IA[αMeF]VV[αMeK]GG-NH2; N-terminus assumed)
pEC50 [1, 4]: 10.15 | pEC50 [1, 5]: 9.96 | EC50 [1]: 88 pM | pEC50 [2, 6]: 8.11 | pEC50 [2, 7]: 7.92 | pEC50 [3, 8]: 7.64 | pEC50 [3, 9]: 7.64

CCCCCCCCCCCCCCCC(=O)N[C@@H](CCC(=O)NCCCC[C@H](NC(=O)CNC(=O)[C@H](CCC(=O)O)NC(=O)C(C)(C)NC(=O)[C@@H](N)Cc1c[nH]cn1)C(=O)N[C@@](C)(Cc1ccccc1)C(=O)N[C@H](C(=O)N[C@@H](CO)C(=O)N[C@@H](CC(=O)O)C(=O)N[C@H](C(=O)N[C@@](C)(CO)C(=O)N[C@@H](CO)C(=O)N[C@@](C)(Cc1ccccc1)C(=O)N[C@@H](CC(C)C)C(=O)N[C@@H](CCC(=O)O)C(=O)NCC(=O)N[C@@H](CCC(=O)O)C(=O)N[C@@H](C)C(=O)N[C@@H](C)C(=O)N[C@@](C)(CCCCN)C(=O)N[C@@H](CCC(=O)O)C(=O)N[C@@](C)(Cc1ccccc1)C(=O)N[C@H](C(=O)N[C@@H](C)C(=O)N[C@@](C)(Cc1ccccc1)C(=O)N[C@H](C(=O)N[C@H](C(=O)N[C@@](C)(CCCCN)C(=O)NCC(=O)NCC(N)=O)C(C)C)C(C)C)[C@@H](C)CC)C(C)C)[C@@H](C)O)C(=O)O [compound 95] (H-H[Aib]EGK([γGlu-Palmitoyl])[αMeF]TSDV[αMeS]S[αMeF]LEGEAA[αMeK]E[αMeF]IA[αMeF]VV[αMeK]GG-NH2; N-terminus assumed)
pEC50 [1, 4]: 9.59 | pEC50 [1, 5]: 9.72 | EC50 [1]: 224 pM | pEC50 [2, 6]: ≤ 7.55 | pEC50 [2, 7]: ≤ 7.55 | pEC50 [3, 8]: ≤ 7.55 | pEC50 [3, 9]: ≤ 7.55

CC[C@H](C)[C@H](NC(=O)[C@](C)(Cc1ccccc1)NC(=O)[C@H](CCC(=O)O)NC(=O)[C@](C)(CCCCN)NC(=O)[C@H](C)NC(=O)[C@H](C)NC(=O)[C@H](CCC(=O)O)NC(=O)CNC(=O)[C@H](CCC(=O)O)NC(=O)[C@H](CC(C)C)NC(=O)[C@](C)(Cc1ccccc1)NC(=O)[C@H](CO)NC(=O)[C@](C)(CO)NC(=O)[C@@H](NC(=O)[C@H](CC(=O)O)NC(=O)[C@H](CO)NC(=O)[C@@H](NC(=O)[C@](C)(Cc1ccccc1)NC(=O)[C@H](CO)NC(=O)CNC(=O)[C@H](CCC(=O)O)NC(=O)C(C)(C)NC(=O)[C@@H](N)Cc1c[nH]cn1)[C@@H](C)O)C(C)C)C(=O)N[C@@H](C)C(=O)N[C@@](C)(Cc1ccccc1)C(=O)N[C@H](C(=O)N[C@H](C(=O)N[C@@H](CCCCNC(=O)CC[C@H](NC(=O)CC[C@H](NC(=O)CC[C@H](NC(=O)CCCCCCCCCCCCCCCCC(=O)O)C(=O)O)C(=O)O)C(=O)O)C(=O)NCC(=O)NCC(N)=O)C(C)C)C(C)C [compound 193]
pEC50 ([1]; first run (n1), cAMP activity, read-out: Primary assay EC50 GLP-1R n1): 9.48 | EC50 [1]: 213 pM | pEC50 ([1]; second run (n2), cAMP activity, read-out: Primary assay EC50 GLP-1R n2): 10.02 | pEC50 ([2]; first run (n1), cAMP activity of substituted and mono-lipidated peptides, read-out: Primary assay EC50 Gluc-R): ≤ 7.59 | pEC50 ([2]; second run (n2), cAMP activity, read-out: Primary assay EC50 Gluc-R): ≤ 7.59 | pEC50 ([3]; first run (n1), cAMP activity, read-out: Primary assay EC50 GIP-R): ≤ 7.59 | pEC50 ([3]; second run (n2), cAMP activity, read-out: Primary assay EC50 GIP-R): ≤ 7.59
